The target in one series is Cytochrome P450 2C9 (Homo sapiens, UniProt P11712).
The target in another series is Cytochrome P450 2C19 (Homo sapiens, UniProt P33261). Description: Cytochrome panel assay with activity outcomes. Panel member name: p450-cyp2c19 Compounds with AC50 equal or less than 10 uM are considered active. It is filed as functional.
For a further series, the target named is T1, Cytochrome P450 1A2 (Homo sapiens, UniProt P05177).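 Also: PubChem cytochrome P450 panel assay, CYP1A2 panel member.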
T1 sequence (P05177 whole entry): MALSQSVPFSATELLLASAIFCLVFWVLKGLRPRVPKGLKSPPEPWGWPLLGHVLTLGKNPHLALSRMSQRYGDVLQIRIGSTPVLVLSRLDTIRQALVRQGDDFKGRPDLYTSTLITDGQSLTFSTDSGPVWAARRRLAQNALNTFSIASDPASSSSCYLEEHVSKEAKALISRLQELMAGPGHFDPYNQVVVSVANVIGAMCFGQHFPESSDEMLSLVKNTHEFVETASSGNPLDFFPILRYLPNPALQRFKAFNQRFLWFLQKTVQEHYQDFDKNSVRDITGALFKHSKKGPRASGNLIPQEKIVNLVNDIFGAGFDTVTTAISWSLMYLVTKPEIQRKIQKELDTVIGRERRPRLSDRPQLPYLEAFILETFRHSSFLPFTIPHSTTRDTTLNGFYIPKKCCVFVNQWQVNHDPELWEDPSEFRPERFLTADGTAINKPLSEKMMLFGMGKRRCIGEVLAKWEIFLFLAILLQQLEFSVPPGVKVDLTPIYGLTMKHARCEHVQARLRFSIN

Series [1] deals with T2, Nucleotide-binding oligomerization domain-containing protein 1 (Homo sapiens, UniProt Q9Y239).
T2 sequence (Q9Y239 whole entry): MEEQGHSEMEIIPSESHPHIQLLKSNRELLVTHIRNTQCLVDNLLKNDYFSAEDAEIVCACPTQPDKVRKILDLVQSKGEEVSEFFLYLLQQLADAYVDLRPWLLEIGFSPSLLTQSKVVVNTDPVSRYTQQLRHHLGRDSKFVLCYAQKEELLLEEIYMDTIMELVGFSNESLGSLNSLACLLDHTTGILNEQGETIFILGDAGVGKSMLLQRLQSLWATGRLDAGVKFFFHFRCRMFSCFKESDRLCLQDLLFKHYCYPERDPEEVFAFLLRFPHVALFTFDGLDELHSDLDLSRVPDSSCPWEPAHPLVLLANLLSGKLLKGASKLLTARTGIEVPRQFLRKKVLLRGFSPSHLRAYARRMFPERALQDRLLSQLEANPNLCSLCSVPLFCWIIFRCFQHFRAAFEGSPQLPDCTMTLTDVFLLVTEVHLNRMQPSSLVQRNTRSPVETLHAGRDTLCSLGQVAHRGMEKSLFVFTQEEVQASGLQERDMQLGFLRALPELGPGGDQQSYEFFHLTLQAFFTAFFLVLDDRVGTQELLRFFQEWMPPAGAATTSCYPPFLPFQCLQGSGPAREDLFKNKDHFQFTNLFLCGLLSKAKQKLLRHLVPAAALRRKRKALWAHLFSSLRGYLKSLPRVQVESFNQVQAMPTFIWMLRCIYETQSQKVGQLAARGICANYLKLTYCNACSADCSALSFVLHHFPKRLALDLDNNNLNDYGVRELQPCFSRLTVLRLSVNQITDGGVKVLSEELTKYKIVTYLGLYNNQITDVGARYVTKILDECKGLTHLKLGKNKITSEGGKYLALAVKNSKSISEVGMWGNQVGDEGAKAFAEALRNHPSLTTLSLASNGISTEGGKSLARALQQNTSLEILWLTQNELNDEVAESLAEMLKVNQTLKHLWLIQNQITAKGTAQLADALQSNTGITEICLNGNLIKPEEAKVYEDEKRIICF
Description: NOD1 signaling inhibitors, SAR follow-up, revised (AID 2333). It is filed as functional.

Another series has as its target Tumor necrosis factor (Homo sapiens, UniProt P01375). Description: TNFa-triggered NF-kB activation inhibitors, SAR follow-up, cell-based, revised (AID 2337). It is filed as functional.
A further series deals with HEK293. Description: cells. As to conditions: Homo sapiens.
The nature of series [2]: Luminescence Cell-Based Dose Retest to Confirm Inhibitors of Cancer Stem Cells. [Related pubchem assays (depositor defined):AID2717, AID2721]. As to conditions: Homo sapiens. It is filed as functional.
For a further series, the target named is Cytochrome P450 3A4 (Homo sapiens, UniProt P08684).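 Also: CYP3A4 tested as one member of a cytochrome P450 panel screen.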
Sequence of Cytochrome P450 3A4 (P08684 whole entry): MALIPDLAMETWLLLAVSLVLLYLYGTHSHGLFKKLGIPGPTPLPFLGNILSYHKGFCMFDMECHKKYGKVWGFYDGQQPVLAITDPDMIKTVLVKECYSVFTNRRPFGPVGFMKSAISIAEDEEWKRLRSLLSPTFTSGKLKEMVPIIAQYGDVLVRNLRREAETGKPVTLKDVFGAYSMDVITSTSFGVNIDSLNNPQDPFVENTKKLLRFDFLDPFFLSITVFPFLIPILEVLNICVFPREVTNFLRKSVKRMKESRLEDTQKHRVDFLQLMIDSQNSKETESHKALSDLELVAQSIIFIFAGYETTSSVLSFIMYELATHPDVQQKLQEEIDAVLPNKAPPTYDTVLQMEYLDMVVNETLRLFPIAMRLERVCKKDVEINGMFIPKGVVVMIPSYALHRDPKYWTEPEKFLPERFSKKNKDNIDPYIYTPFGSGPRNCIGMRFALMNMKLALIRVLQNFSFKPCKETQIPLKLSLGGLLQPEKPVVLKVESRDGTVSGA

In ChEMBL document CHEMBL1201862, “PubChem BioAssay data set” (2004) one finds AC50 and IC50 data, which are given here for six compounds.

Structures are written as SMILES. Active and inactive are the calls of the source.

Sequence of Cytochrome P450 2C9 (P11712 whole entry): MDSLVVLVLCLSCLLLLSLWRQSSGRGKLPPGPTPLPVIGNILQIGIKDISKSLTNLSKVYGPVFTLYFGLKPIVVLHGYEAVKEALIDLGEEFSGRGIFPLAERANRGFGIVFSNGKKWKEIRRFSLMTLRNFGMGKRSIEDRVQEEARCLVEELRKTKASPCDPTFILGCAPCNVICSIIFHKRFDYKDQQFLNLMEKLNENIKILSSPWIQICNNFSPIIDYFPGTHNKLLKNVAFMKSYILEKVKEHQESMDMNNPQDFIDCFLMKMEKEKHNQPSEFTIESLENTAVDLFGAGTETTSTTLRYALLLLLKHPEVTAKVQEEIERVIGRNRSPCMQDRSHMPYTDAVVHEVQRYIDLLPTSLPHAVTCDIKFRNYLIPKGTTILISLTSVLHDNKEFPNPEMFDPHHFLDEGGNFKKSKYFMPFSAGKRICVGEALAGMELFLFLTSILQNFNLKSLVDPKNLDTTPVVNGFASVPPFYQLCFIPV
Sequence of Tumor necrosis factor (P01375 whole entry): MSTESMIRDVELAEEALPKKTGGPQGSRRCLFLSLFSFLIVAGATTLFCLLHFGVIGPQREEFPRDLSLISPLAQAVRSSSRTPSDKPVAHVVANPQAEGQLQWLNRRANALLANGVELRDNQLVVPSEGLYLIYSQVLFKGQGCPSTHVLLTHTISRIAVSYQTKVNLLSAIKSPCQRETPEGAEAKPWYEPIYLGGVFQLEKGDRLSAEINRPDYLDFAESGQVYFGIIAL
Sequence of Cytochrome P450 2C19 (P33261 whole entry): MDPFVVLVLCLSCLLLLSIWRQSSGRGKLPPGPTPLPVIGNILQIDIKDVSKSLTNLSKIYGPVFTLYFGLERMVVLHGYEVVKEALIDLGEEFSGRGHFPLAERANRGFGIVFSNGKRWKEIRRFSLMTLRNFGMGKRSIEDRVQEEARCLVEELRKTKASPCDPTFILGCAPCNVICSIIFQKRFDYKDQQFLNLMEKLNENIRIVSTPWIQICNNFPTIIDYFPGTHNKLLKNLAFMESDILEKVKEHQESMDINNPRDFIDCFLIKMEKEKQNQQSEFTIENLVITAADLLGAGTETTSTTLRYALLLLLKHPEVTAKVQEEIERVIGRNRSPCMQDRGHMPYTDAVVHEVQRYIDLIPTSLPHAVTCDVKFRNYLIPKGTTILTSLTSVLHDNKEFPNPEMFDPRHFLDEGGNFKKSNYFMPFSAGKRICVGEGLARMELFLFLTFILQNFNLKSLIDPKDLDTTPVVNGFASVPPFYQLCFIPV

Consider `Cc1cc(C(=O)O)c(O)nc1C`, for which the AC50 result at Cytochrome P450 2C9 and on Cytochrome P450 2C19 was “inconclusive” throughout.
In the case of `COc1ccc(OC)c2nc(O)c(CCNC(=O)C3CCCCC3)cc12`, the AC50 entry is “inconclusive” on Cytochrome P450 2C9 and 20 µM (inconclusive) at Cytochrome P450 1A2.
Regarding `CSc1ccc(NC(=O)c2ccc(CN3CCc4ccccc43)cc2)cc1`, the IC50 (in series [1]; at Tumor necrosis factor; in the series on HEK293) was > 20 µM (inactive) throughout.
Regarding `N#Cc1cccc(NC(=O)CSc2nc3scc(-c4ccccc4)c3c(=O)[nH]2)c1`, the IC50 (in series [1]; at Tumor necrosis factor; in the series with HEK293) was > 20 µM (inactive) in each case.
For the compound `COc1cccc(/C=N/NC(=O)CSc2nnc(C)n2-c2ccccc2)c1O`, the AC50 entry at Cytochrome P450 2C9 is “inconclusive”; on Cytochrome P450 2C19 (read-out: AC50), 31.6 µM (inconclusive); in series [2], 11.9 µM (active); on Cytochrome P450 3A4, 4.47 µM (inconclusive); at Cytochrome P450 1A2 it was 35.5 µM (inconclusive).
Take `NS(=O)(=O)c1cc(Cl)c(Cl)c(S(N)(=O)=O)c1` [DICHLORPHENAMIDE]: the AC50 entry on Cytochrome P450 2C9 was “inconclusive”.
